Measured values published in PubChem BioAssay (NCI).
Where “and” joins values, the source holds several entries; their conditions need not be identical. Equal entries are not always repeated.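 Where inhibition never reached the appropriate level, the endpoint shown equals the highest concentration tested. Otherwise, values were interpolated linearly from a five-concentration, 48-hour dose response in 96-well plates. At the GI50, growth is halved. TGI: total growth inhibition.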 Where a SMILES comes first, the peptide text is derived from it. [ ]: non-standard residue; d: D form. The star is where a group is joined. X28 = COC1=CC(=O)N(C(=O)[C@@H](O*)C(C)C)[C@H]1Cc1ccccc1; NMeL = CN[C@@H](CC(C)C)C(=O)O; Hexanoyl = CCCCCC(=O)*

Key:
Test in all cases: DTP human tumour cell line panel, 48 h
[1] = tested on: SK-MEL-2 melanoma
[2] = tested on: COLO 205 colon
[3] = tested on: KM12 colon
[4] = tested on: SNB-19 CNS
[5] = tested on: LOX IMVI melanoma
[6] = tested on: OVCAR-5 ovarian
[7] = tested on: A549 NSCLC
[8] = tested on: SNB-75 CNS
[9] = tested on: M14 melanoma
[10] = tested on: SK-OV-3 ovarian

| Structure (SMILES) | TGI [1] | TGI [2] | TGI [3] | TGI [4] | TGI [5] | TGI [6] | TGI [7] | TGI [8] | TGI [9] | TGI [10] | GI50 [2] | GI50 [3] | GI50 [4] | GI50 [5] | GI50 [6] | GI50 [7] | GI50 [8] | GI50 [9] | GI50 [10] |
| --- | --- | --- | --- | --- | --- | --- | --- | --- | --- | --- | --- | --- | --- | --- | --- | --- | --- | --- | --- |
| COc1cc(O)c(C(=O)/C=C/c2ccc(O)cc2)cc1Oc1ccc(C(=O)/C=C/c2ccc(O)cc2)c(O)c1 | 14.7 µM | 3.58 µM | 3.18 µM | 25.1 µM | 10.7 µM | 5.6 µM | 15.3 µM | 7.5 µM | 12.7 µM | 9.15 µM | – | – | – | – | – | – | – | – | – |
| Cc1cc2nc3c(C#N)c(-c4ccccc4)/c(=C\Nc4cccc(C(F)(F)F)c4)c(=O)n3c2cc1C | > 100 µM | > 100 µM | > 100 µM | > 100 µM | > 100 µM | > 100 µM | > 100 µM | > 100 µM | > 100 µM | > 100 µM | – | – | – | – | – | – | – | – | – |
| COC(=O)CCCc1ccc2c(c1)CCC2 | > 100 µM | > 100 µM | > 100 µM | > 100 µM | > 100 µM | > 100 µM | > 100 µM | > 100 µM | > 100 µM | > 100 µM | – | – | – | – | – | – | – | – | – |
| CC(=O)OC1COC(N2C(=O)C(=O)c3cc(Br)c([N+](=O)[O-])cc32)C(OC(C)=O)C1OC(C)=O (stereo not given) | > 100 µM | > 100 µM | > 100 µM | > 100 µM | 99 µM | > 100 µM | > 100 µM | 81.4 µM | > 100 µM | > 100 µM | – | – | – | – | – | – | – | – | – |
| OC1(c2ccc(Cl)cc2)c2ccccc2C2=Nc3ccccc3CN21 (stereo not given) | > 89.6 µM | > 100 µM | > 75.4 µM | > 67.6 µM | > 100 µM | > 100 µM | 28.6 µM | 44 µM | > 100 µM | > 100 µM | – | – | – | – | – | – | – | – | – |
| CCC1=C(C)C2=NC1=CC1=NC(=C(CC)/C1=C/O)C=C1N=C3C(=C1C)C(=O)C(C(=O)OC)C3=C1NC(=C2)C(C)C1CCC(=O)OC (stereo not given) | > 100 µM | > 100 µM | > 100 µM | > 100 µM | > 100 µM | > 100 µM | > 100 µM | > 100 µM | > 100 µM | > 100 µM | – | – | – | – | – | – | – | – | – |
| CCCCCC(=O)N[C@H](C(=O)N[C@H](C(=O)N(C)[C@@H](CC(C)C)C(=O)N1CCC[C@H]1C(=O)N1CCC[C@H]1C(=O)O[C@H](C(=O)N1C(=O)C=C(OC)[C@@H]1Cc1ccccc1)C(C)C)C(C)C)C(C)C (Hexanoyl-VV[NMeL]PP-X28) | > 100 µM | > 100 µM | > 100 µM | > 42.1 µM | > 100 µM | > 100 µM | > 100 µM | 70.8 µM | > 48.1 µM | > 100 µM | – | – | – | – | – | – | – | – | – |
| O=C(/C=C1\N=C(c2ccccc2)N(c2ccc3c(c2)Sc2cc(N4C(=O)/C(=C/C(=O)/C=C/c5ccccc5)N=C4c4ccccc4)ccc2N3)C1=O)/C=C/c1ccccc1 | 38.2 µM | > 100 µM | > 100 µM | 80 µM | 84.9 µM | 48.8 µM | > 100 µM | 45.6 µM | > 100 µM | 33.8 µM | – | – | – | – | – | – | – | – | – |
| Cc1ccc(Nc2ncnc3sc(SCc4ccccc4)nc23)cc1 | > 100 µM | > 100 µM | > 100 µM | > 100 µM | > 100 µM | > 100 µM | > 100 µM | > 100 µM | > 100 µM | > 100 µM | – | – | – | – | – | – | – | – | – |
| C(=N\NC1=NCCCN1)/c1ccc(-c2cn3cc(/C=N/NC4=NCCCN4)ccc3n2)cc1 | > 100 µM | > 100 µM | > 100 µM | > 100 µM | > 100 µM | > 100 µM | > 100 µM | > 100 µM | > 100 µM | > 100 µM | – | – | – | – | – | – | – | – | – |
| O=[N+]([O-])c1ccccc1S(=O)(=O)N1CCCc2cc(Cl)ccc21 | > 100 µM | > 100 µM | > 83.9 µM | > 100 µM | > 100 µM | > 100 µM | > 100 µM | > 100 µM | > 100 µM | > 100 µM | – | – | – | – | – | – | – | – | – |
| CC(=O)C1=CC=C/C1=N\Nc1ccccc1 | 27.7 µM | 22.9 µM | 15.5 µM | 47.6 µM | 9.02 µM | 19.7 µM | 35.1 µM | 24.6 µM | 22.7 µM | 30.7 µM | – | – | – | – | – | – | – | – | – |
| CCCCN(CCCC)CC(=O)c1ccc2cc(Cl)c3ccccc3c2c1 | 69.9 µM | 34.1 µM | > 100 µM | > 100 µM | > 100 µM | > 100 µM | > 100 µM | 67.3 µM | > 100 µM | > 100 µM | – | – | – | – | – | – | – | – | – |
| COc1ccccc1NC(=S)N/N=C(/c1ccccc1)c1ccccn1 | 21.7 µM | 0.59 µM | 14 µM | 21.8 µM | 15.7 µM | 13.2 µM | 16.3 µM | 24.7 µM | 9.52 µM | 13.8 µM | – | – | – | – | – | – | – | – | – |
| CC(=O)OCC1OC(n2c(-c3ccccc3)c(N=Nc3ccc(Cl)cc3)c(C)c(C#N)c2=S)C(OC(C)=O)C(OC(C)=O)C1OC(C)=O (stereo not given) | 39.6 µM and > 100 µM | 57.5 µM and > 100 µM | 24.4 µM and > 100 µM | 33.3 µM and > 100 µM | 43.3 µM and > 100 µM | 30.6 µM and > 100 µM | > 100 µM | > 100 µM and 26.4 µM | 32.4 µM and > 100 µM | > 100 µM and 76.5 µM | 28 µM and > 100 µM | 9.22 µM and 85.4 µM | 4.48 µM and 34.1 µM | 11.2 µM and > 100 µM | 15.7 µM and > 100 µM | 6.86 µM and 22.1 µM | 25.5 µM and 4.24 µM | 9.33 µM and 71.1 µM | 8.42 µM and 27.3 µM |
| Cc1nn(-c2ccccc2)c(C)c1/C=N/NC(=O)c1sc(=S)n(-c2ccc(Cl)cc2)c1N | > 100 µM | 38.9 µM | > 100 µM | > 100 µM | 8.73 µM | > 100 µM | > 100 µM | 5.49 µM | > 100 µM | > 100 µM | – | – | – | – | – | – | – | – | – |
| C=C1C(=O)OC2C(C)C3C=CC(=O)[C@@]3(C)C(OC(=O)/C(C)=C/C)C1[C@@H]2OC(C)=O (stereo not given in full) | 1.18 µM | 0.906 µM | 3.68 µM | 4.13 µM | 0.521 µM | 3.32 µM | 3.8 µM | 2.98 µM | 1.96 µM | 3.52 µM | – | – | – | – | – | – | – | – | – |
| CC1OC(OC2C(CO)OC(O[C@H]3CC[C@@]4(C)C(=CC[C@H]5[C@@H]6C[C@@H]7O[C@](O)(CC[C@@H](C)COC8OC(CO)C(O)C(O)C8O)[C@@H](C)[C@@H]7[C@@]6(C)CC[C@@H]54)C3)C(OC3OC(C)C(O)C(O)C3O)C2O)C(O)C(O)C1O (stereo not given in full) | 12.3 µM | 6.81 µM | 6.85 µM | 6.39 µM | 3.17 µM | 6.76 µM | 3.16 µM | 3.26 µM | 4.69 µM | 7.34 µM | – | – | – | – | – | – | – | 2.24 µM | – |
